# Assays:
# [1] = system: neonate CBW (cotton bollworm) larvae; experiment: Surface-treated diet test against neonate CBW larvae; type: in vivo, Heliothis zea
# Description: Each test compound was formulated by dissolving the compound in an acetone/alcohol (1:1) mixture containing 23 g of "Toximul R" (sulfonate/nonionic emulsifier blend) and 13 g of "Toximul S" (sulfonate/nonionic emulsifier blend) per liter. These mixtures were then diluted with water to give the indicated concentrations.
# Additional insects were evaluated using similar formulations and evaluation procedures, with the exceptions noted.
# After standard exposure periods, percent mortality was evaluated. The following abbreviations are used:
# ^b Mean of two replicates tested
# ^d Diet is surface treated with A83543A, allowed to dry and infested
# larval blow fly = experiment: Insecticidal assay in blood of sheep challenged with Haemonchus contortus, larval blow fly; type: in vivo
# Description: Blood is drawn from the guinea pigs at 30 minutes except as noted, and the samples of blood are centrifuged. Dental wicks are saturated with the blood serum, and then exposed in Petri dishes to adult stable flies; blow fly larvae are exposed in test tubes. After 24 and 48 hours, the insects are examined, and the number of dead are counted. The results of the tests are recorded as the percent of the insects which are killed.
# Tests are carried out in sheep using the test method described supra in the Guinea Pig Test description. […]
# ^b Amount (mg/kg) times number of doses administered
# ^c Times postadministration at which blood is drawn
# SAW (Southern armyworm) = experiment: Greenhouse test against SAW; type: in vivo; details: Spodoptera eridania, bushbean
smiles,measurement,setting,value
CC[C@H]1CCC[C@H](O[C@H]2CC[C@H](N(C)C)[C@@H](C)O2)[C@@H](C)C(=O)C2=C[C@@H]3[C@@H](C=C[C@@H]4C[C@@H](O[C@@H]5O[C@@H](C)[C@H](OC)[C@@H](OC)[C@H]5OC)C[C@@H]34)[C@@H]2CC(=O)O1 [A83543A],inhibition at 0.5 ppm,"[1]; 72 h, 3 days, 0.50 ppm",15%
same,inhibition at 1 ppm,"[1]; 72 h, 3 days",45%
same,inhibition at 5 ppm,"[1]; 72 h, 3 days",100%
same,inhibition at 10 ppm,"[1]; 72 h, 3 days",100%
same,inhibition at 50 ppm,"[1]; 72 h, 3 days",100%
same,inhibition at 1 ppm,"[1]; 96 h, 4 days",30%
same,inhibition at 5 ppm,"[1]; 96 h, 4 days",100%
same,inhibition at 10 ppm,"[1]; 96 h, 4 days",100%
same,inhibition at 50 ppm,"[1]; 96 h, 4 days",100%
same,inhibition at 100 ppm,"[1]; 96 h, 4 days, 100.00 ppm",100%
same,Percent Insecticide Mortality,"larval blow fly; 1 × 1 mg/kg IV, 35 min, L, 24-hour exposure",25%
same,Percent Insecticide Mortality,"larval blow fly; 1 × 1 mg/kg IV, 35 min, L, 48-hour exposure",25%
same,Percent Insecticide Mortality,"larval blow fly; 1 × 1 mg/kg IV, 5 hr, L, 24-hour exposure",10%
same,Percent Insecticide Mortality,"larval blow fly; 1 × 1 mg/kg IV, 5 hr, L, 48-hour exposure",10%
same,Percent Insecticide Mortality,"larval blow fly; 1 × 1 mg/kg IV, Day 0, L, 24-hour exposure",0%
same,Percent Insecticide Mortality,"larval blow fly; 1 × 1 mg/kg IV, Day 0, L, 48-hour exposure",0%
same,Percent Insecticide Mortality,"larval blow fly; 1 × 1 mg/kg IV, Day 1, L, 24-hour exposure",0%
same,Percent Insecticide Mortality,"larval blow fly; 1 × 1 mg/kg IV, Day 1, L, 48-hour exposure",0%
same,Percent Insecticide Mortality,"larval blow fly; 1 × 1 mg/kg IV, Day 2, L, 24-hour exposure",0%
same,Percent Insecticide Mortality,"larval blow fly; 1 × 1 mg/kg IV, Day 2, L, 48-hour exposure",0%
same,Percent Insecticide Mortality,"larval blow fly; 1 × 1 mg/kg IV, Day 3, L, 24-hour exposure",0%
same,Percent Insecticide Mortality,"larval blow fly; 1 × 1 mg/kg IV, Day 3, L, 48-hour exposure",0%
same,Percent Insecticide Mortality,"larval blow fly; 1 × 1 mg/kg IV, Day 4, L, 24-hour exposure",0%
same,Percent Insecticide Mortality,"larval blow fly; 1 × 1 mg/kg IV, Day 4, L, 48-hour exposure",0%
same,Percent Insecticide Mortality,"larval blow fly; 1 × 1 mg/kg IV, Day 5, L, 24-hour exposure",0%
same,Percent Insecticide Mortality,"larval blow fly; 1 × 1 mg/kg IV, Day 5, L, 48-hour exposure",0%
same,Percent Insecticide Mortality,"larval blow fly; 25 × 2 mg/kg IR, 35 min, L, 24-hour exposure",0%
same,Percent Insecticide Mortality,"larval blow fly; 25 × 2 mg/kg IR, 35 min, L, 48-hour exposure",0%
same,Percent Insecticide Mortality,"larval blow fly; 25 × 2 mg/kg IR, 5 hr, L, 24-hour exposure",25%
same,Percent Insecticide Mortality,"larval blow fly; 25 × 2 mg/kg IR, 5 hr, L, 48-hour exposure",50%
same,Percent Insecticide Mortality,"larval blow fly; 25 × 2 mg/kg IR, Day 0, L, 24-hour exposure, 0 min",0%
same,Percent Insecticide Mortality,"larval blow fly; 25 × 2 mg/kg IR, Day 0, L, 48-hour exposure",0%
same,Percent Insecticide Mortality,"larval blow fly; 25 × 2 mg/kg IR, Day 1, L, 24-hour exposure",100%
same,Percent Insecticide Mortality,"larval blow fly; 25 × 2 mg/kg IR, Day 1, L, 48-hour exposure",100%
same,Percent Insecticide Mortality,"larval blow fly; 25 × 2 mg/kg IR, Day 2, L, 24-hour exposure",90%
same,Percent Insecticide Mortality,"larval blow fly; 25 × 2 mg/kg IR, Day 2, L, 48-hour exposure",100%
same,Percent Insecticide Mortality,"larval blow fly; 25 × 2 mg/kg IR, Day 3, L, 24-hour exposure",90%
same,Percent Insecticide Mortality,"larval blow fly; 25 × 2 mg/kg IR, Day 3, L, 48-hour exposure",100%
same,Percent Insecticide Mortality,"larval blow fly; 25 × 2 mg/kg IR, Day 4, L, 24-hour exposure",60%
same,Percent Insecticide Mortality,"larval blow fly; 25 × 2 mg/kg IR, Day 4, L, 48-hour exposure",90%
same,Percent Insecticide Mortality,"larval blow fly; 25 × 2 mg/kg IR, Day 5, L, 24-hour exposure",50%
same,Percent Insecticide Mortality,"larval blow fly; 25 × 2 mg/kg IR, Day 5, L, 48-hour exposure",75%
same,Percent Insecticide Mortality,"larval blow fly; 50 × 1 mg/kg IP, 35 min, L, 24-hour exposure",0%
same,Percent Insecticide Mortality,"larval blow fly; 50 × 1 mg/kg IP, 35 min, L, 48-hour exposure",10%
same,Percent Insecticide Mortality,"larval blow fly; 50 × 1 mg/kg IP, 5 hr, L, 24-hour exposure",10%
same,Percent Insecticide Mortality,"larval blow fly; 50 × 1 mg/kg IP, 5 hr, L, 48-hour exposure",10%
same,Percent Insecticide Mortality,"larval blow fly; 50 × 1 mg/kg IP, Day 0, L, 24-hour exposure, 0 min",0%
same,Percent Insecticide Mortality,"larval blow fly; 50 × 1 mg/kg IP, Day 0, L, 48-hour exposure",0%
same,Percent Insecticide Mortality,"larval blow fly; 50 × 1 mg/kg IP, Day 1, L, 24-hour exposure",10%
same,Percent Insecticide Mortality,"larval blow fly; 50 × 1 mg/kg IP, Day 1, L, 48-hour exposure",10%
same,Percent Insecticide Mortality,"larval blow fly; 50 × 1 mg/kg IP, Day 2, L, 24-hour exposure, 2880 min",20%
same,Percent Insecticide Mortality,"larval blow fly; 50 × 1 mg/kg IP, Day 2, L, 48-hour exposure",20%
same,Percent Insecticide Mortality,"larval blow fly; 50 × 1 mg/kg IP, Day 3, L, 24-hour exposure, 4320 min",20%
same,Percent Insecticide Mortality,"larval blow fly; 50 × 1 mg/kg IP, Day 3, L, 48-hour exposure",20%
same,Percent Insecticide Mortality,"larval blow fly; 50 × 1 mg/kg IP, Day 4, L, 24-hour exposure, 5760 min",10%
same,Percent Insecticide Mortality,"larval blow fly; 50 × 1 mg/kg IP, Day 4, L, 48-hour exposure",20%
same,Percent Insecticide Mortality,"larval blow fly; 50 × 1 mg/kg IP, Day 5, L, 24-hour exposure, 7200 min",10%
same,Percent Insecticide Mortality,"larval blow fly; 50 × 1 mg/kg IP, Day 5, L, 48-hour exposure",25%
same,Percent Insecticide Mortality,"larval blow fly; 50 × 1 mg/kg IR, 35 min, L, 24-hour exposure",0%
same,Percent Insecticide Mortality,"larval blow fly; 50 × 1 mg/kg IR, 35 min, L, 48-hour exposure",0%
same,Percent Insecticide Mortality,"larval blow fly; 50 × 1 mg/kg IR, 5 hr, L, 24-hour exposure",40%
same,Percent Insecticide Mortality,"larval blow fly; 50 × 1 mg/kg IR, 5 hr, L, 48-hour exposure",75%
same,Percent Insecticide Mortality,"larval blow fly; 50 × 1 mg/kg IR, Day 0, L, 24-hour exposure, 0 min",0%
same,Percent Insecticide Mortality,"larval blow fly; 50 × 1 mg/kg IR, Day 0, L, 48-hour exposure",0%
same,Percent Insecticide Mortality,"larval blow fly; 50 × 1 mg/kg IR, Day 1, L, 24-hour exposure",90%
same,Percent Insecticide Mortality,"larval blow fly; 50 × 1 mg/kg IR, Day 1, L, 48-hour exposure",100%
same,Percent Insecticide Mortality,"larval blow fly; 50 × 1 mg/kg IR, Day 2, L, 24-hour exposure, 2880 min",90%
same,Percent Insecticide Mortality,"larval blow fly; 50 × 1 mg/kg IR, Day 2, L, 48-hour exposure",100%
same,Percent Insecticide Mortality,"larval blow fly; 50 × 1 mg/kg IR, Day 3, L, 24-hour exposure, 4320 min",80%
same,Percent Insecticide Mortality,"larval blow fly; 50 × 1 mg/kg IR, Day 3, L, 48-hour exposure",100%
same,Percent Insecticide Mortality,"larval blow fly; 50 × 1 mg/kg IR, Day 4, L, 24-hour exposure, 5760 min",40%
same,Percent Insecticide Mortality,"larval blow fly; 50 × 1 mg/kg IR, Day 4, L, 48-hour exposure",40%
same,Percent Insecticide Mortality,"larval blow fly; 50 × 1 mg/kg IR, Day 5, L, 24-hour exposure, 7200 min",20%
same,Percent Insecticide Mortality,"larval blow fly; 50 × 1 mg/kg IR, Day 5, L, 48-hour exposure",25%
same,inhibition at 12.5 ppm,SAW (Southern armyworm); 12.5 ppm,0%
same,inhibition at 25 ppm,SAW (Southern armyworm); 25 ppm,40%
same,inhibition at 50 ppm,SAW (Southern armyworm); 50 ppm,80%
same,inhibition at 100 ppm,SAW (Southern armyworm); 100 ppm,100%
